Data as given in US20220193241A1, “AGENT TARGETING DOUBLE-MEMBRANE ORGANELLE DNA” (CHIBA-PREFECTURE, priority 2019, published 2022).
pIC50: −log10 of the molar value.

Legend:
[1] = tested on: HeEB1 (HeLamtHeLa) cells; test: WST assay of cell proliferation with morphological observation; format: cell-based, human; details: 5 days
Protocol: (§1) The proliferation suppressive effect of CCC020-TPP on cells having the mitochondrial A3243G mutation was evaluated by WST assay. Both a mitochondrial DNA mutated cell line and a normal cell line were inoculated at 1×10^3 cells/well to 96-well plates (Thermo Fisher Scientific), cultured for 24 hours, and then treated with CCC020-TPP (final concentration: 0, 0.1, 1, 10, 20, and 50 μM). The cells were further cultured for 5 days and then morphologically observed under optical microscope IX71 (OLYMPUS, Tokyo, Japan). Then, cell survival rates were calculated using Cell counting kit-8 (DOJINDO, Kumamoto, Japan) according to the instruction manual. DMSO (FUJIFILM Wako Pure Chemical Corp.) (final concentration: 1%) was added as a control to cells.
(§2) IC50 was calculated according to the following expression:
(§3) IC50=10(LOG(A/B)×(50−C)/(D−C)+LOG(B)) • A: higher concentration across the concentration at the cell survival rate of 50% • B: lower concentration across the concentration at the cell survival rate of 50% • C: inhibition rate at the lower concentration across the concentration at the cell survival rate of 50% • D: inhibition rate at the higher concentration across the concentration at the cell survival rate of 50%

[2] = tested on: 3243G High cells; test: as above; format: cell-based, human; details: 5 days
Protocol: as §1, §2, §3

[3] = tested on: 3243G Low cells; test: as above; format: cell-based, human; details: 5 days
Protocol: as §1, §2, §3

[4] = tested on: 3243G High cells; test: Cell death induction: DAPI nuclear staining and cleaved caspase-3 immunostaining; format: cell-based, human; details: 25 μM, 5 days
Protocol: In order to confirm that the suppression of cell proliferation by CCC020-TPP was the induction of cell death, the 3243G High cells were inoculated at 5×10^4 cells/dish to a 35 mm glass base dish (IWAKI), cultured for 24 hours, and then treated with CCC020-TPP (final concentration: 25 μM). The cells thus supplemented with CCC020-TPP were further cultured for 5 days and fixed with 4% PFA/PBS at room temperature for 30 minutes. The cells thus fixed were washed with PBS and blocked with TBST containing 5% normal goat serum for 1 hour. After the completion of blocking, the cells were reacted for 1 hour with a primary antibody diluted with TBST, i.e., a rabbit anti-cleaved caspase-3 antibody (for the cells treated for 5 days: Cell Signaling Technology, Inc.) diluted at 1:200.

[5] = tested on: HeEB1 cells; test: mRNA expression of cell cycle arrest- and apoptosis-related genes by real-time PCR; format: cell-based, human; details: 25 μM, 3 days
Protocol: (§4) In order to elucidate the mechanism of the cell proliferation suppressive effect by CCC020-TPP administration, expression analysis at the mRNA level was conducted by real-time PCR. The mtDNA mutation cell line (3243G High) and the normal cell line (HeEB1) were inoculated at 5×10^5 cells/dish and 1×10^5 cells/dish, respectively, to 6 cm dishes (Falcon), cultured for 24 hours, and then treated with CCC020-TPP (final concentration: 25 μM). After further culture for 3 days, RNA was extracted using RNeasy Plus Mini Kit (QIAGEN) according to the instruction manual. The yield of the RNA thus extracted was measured using NANO DROP 2000™ (Thermo Fisher Scientific). The reverse-transcription reaction of RNA was performed with 500 ng of RNA per sample using SuperScript VILO Master Mix (Invitrogen) to synthesize cDNA. The synthesized cDNA was diluted 5-fold with ultrapure water.
(§5) Real-time PCR employed Power SYBR Green Master Mix (Applied Biosystems), and cDNA sample preparation, PCR reaction and analysis were conducted. The primers and reaction conditions used are shown below.
(§6) The PCR reaction conditions were as follows.

[6] = tested on: 3243G High cells; test: as above; format: cell-based, human; details: 25 μM, 3 days
Protocol: as §4, §5, §6

[7] = tested on: C33A; test: WST cell proliferation assay of library compounds; format: cell-based; details: Homo sapiens, C-33-A, 120 h, 5 days
Protocol: (§7) This compound can recognize the T4216C mutation of mitochondrial ND1 gene, and a uterine cervical cancer cell line C33A has this mutation. Cell proliferation assay with wild-type HeLa cells, which is also a uterine cervical cancer cell line, was conducted in the same manner as in Example 1. 1000 cells were inoculated to a 96-well plate, and CCC1283-TPP was administered at 0.5, 1, 5, 10, and 20 μM. 5 days later, WST assay was conducted.
as §7, with “CCCh531-TPP” for “CCC1283-TPP”
(§8) Compound CCCh560-TPP with a decacyclic structure targeting the A8860G polymorphism of mitochondrial gene ATP6 found in human populations, not acquired mitochondrial mutations in somatic cells, was studied for whether the suppression of cell proliferation was also found by 5-day treatment with the compound for the mitochondrial DNA polymorphism in cancer cell lines C33A, HeLa, Siha, Caski, and ME180 having this polymorphism in homoplasmy and human nontumor skin-derived fibroblast HDF cells. For this purpose, cell proliferation assay was conducted in the same manner as in Example 1. 1000 cells were inoculated to a 96-well plate, and CCCh560-TPP was administered at 0.5, 1, 5, 10, and 20 μM. 5 days later, WST assay was conducted.

[8] = tested on: HeLa cells; test: WST cell proliferation assay of library compounds; format: cell-based; details: Homo sapiens, 120 h, 5 days
Protocol: as §7
as §7, with “CCCh531-TPP” for “CCC1283-TPP”
as §8

[9] = tested on: Siha; test: WST cell proliferation assay of library compounds; format: cell-based; details: Homo sapiens, 120 h, 5 days
Description: as §8

[10] = tested on: Caski; test: WST cell proliferation assay of library compounds; format: cell-based; details: Homo sapiens, Ca-Ski, 120 h, 5 days
Description: as §8

[11] = tested on: HDF (human skin fibroblasts); test: WST cell proliferation assay of library compounds; format: cell-based; details: 5 days
Description: as §8

[12] = tested on: ME180; test: WST cell proliferation assay of library compounds; format: cell-based; details: Homo sapiens, ME-180, 120 h; ME180, 5 days
Description: as §8

| pIC50 [8] | Structure (SMILES) | suppression of cell proliferation (WST) ([1]; 0.1-50 μM) | cell morphology under optical microscope [1] | suppression of cell proliferation (WST) ([2]; 0.1-50 μM) | cell morphology under optical microscope [2] | suppression of cell proliferation (WST) ([3]; 0.1-50 μM) | cell morphology under optical microscope [3] | cleaved caspase-3-positive cells (apoptosis) [4] | cells with fragmentation of the nucleus ([4]; DAPI) | expression of P21, BAX and MCL1 [5] | expression of antiapoptosis-related gene MCL1 [6] | expression of cell cycle arrest-related gene P21 [6] | expression of proapoptosis-related gene BAX [6] | pIC50 [7] | pIC50 [9] | pIC50 [10] | suppression of proliferation (WST) ([11]; 0.5-20 μM) | IC50 (WST) [11] | pIC50 [12] |
| --- | --- | --- | --- | --- | --- | --- | --- | --- | --- | --- | --- | --- | --- | --- | --- | --- | --- | --- | --- |
|  | CN(C)CCCNC(=O)CCNC(=O)c1cc(NC(=O)c2cc(NC(=O)CCNC(=O)c3nc(NC(=O)c4nc(NC(=O)c5nc(NC(=O)CCNC(=O)CCCC[P+](c6ccccc6)(c6ccccc6)c6ccccc6)cn5C)cn4C)cn3C)cn2C)cn1C [CCC020-TPP] | cell proliferation was not suppressed | no morphological change in cells was found | cell proliferation suppressive effect was markedly found | cells that seemed to undergo apoptosis were markedly observed | cell proliferation suppressive effect was markedly found | no morphological change in cells was found | approximately half | approximately 60% | no change in expression was found | significantly decreased | significantly increased | significantly increased |  |  |  |  |  |  |
| 5.11 | CN(C)CCCNC(=O)CCNC(=O)c1cc(NC(=O)c2cc(NC(=O)CCNC(=O)c3nc(NC(=O)c4cc(NC(=O)c5nc(NC(=O)CCCNC(=O)c6cc(NC(=O)c7nc(NC(=O)CCNC(=O)c8nc(NC(=O)c9nc(NC(=O)c%10nc(NC(=O)CCNC(=O)CCCC[P+](c%11ccccc%11)(c%11ccccc%11)c%11ccccc%11)cn%10C)cn9C)cn8C)cn7C)cn6C)cn5C)cn4C)cn3C)cn2C)cn1C [CCCh560-TPP] |  |  |  |  |  |  |  |  |  |  |  |  | 5.78 | 4.90 | 5.26 | tendency to suppress the proliferation | incalculable | 5.49 |
